Experimental data reported in paper PMC12508057, “Discovery of ETI41 and ETI60: novel selective endosomal Toll-like receptor inhibitors for the treatment of autoimmune diseases” (Experimental & Molecular Medicine, 2025).

Tests used:
TLR2/TLR6 = test: Surface TLR specificity, TNF-α secretion in differentiated THP-1; format: cell-based, human; conditions: 2 and 5 μM, differentiated THP-1, Pam3CSK4
Procedure: (§1) RAW 264.7 and differentiated THP-1 cells were seeded into 96-well plates at 2 × 10^4 cells per well, while Daudi cells were seeded at 5 × 10^4 cells per well. After stabilization for 30 min, cells were stimulated with specific TLR agonists for 4 or 24 h. Supernatants were diluted and transferred to precoated ELISA plates to measure TNF-α secretion using kits from Invitrogen. Optical absorbance was measured using a BioTek Synergy HTX multimode microplate reader, and data were interpolated using BioTek Gen5 software.
(§2) The cells were activated with agonistic ligands: […], TLR3 (poly I:C, 2 μg/ml, 24 h), TLR4 (LPS, 10 or 100 ng/ml, 4 h), TLR5 (FLA-ST, 500 ng/ml, 4 h), TLR7 (ORN06/LyoVec, 2 μg/ml, 24 h; and IMQ, 1 μg/ml, 4 h), TLR8 (TL8-506, 2 μg/ml, 24 h) and TLR9 (ODN2395, 1 μM, 4 h) at various concentrations in RAW 264.7 cells, human Daudi cells and THP-1 cells. Data are from at least three independent experiments (n = 3) and statistical differences between the induced case and other cases were analyzed and verified using a one-tailed Student’s t-test (*P < 0.05, **P < 0.01, ***P < 0.001).
(§3) Given the structural similarities among TLR family proteins, achieving high selectivity is challenging. We tested the effects of ETI41 and ETI60 on various surface TLRs to determine their specificity. […] TLRs activate transcription factors, including NF-κB, MAPKs, c-Jun N-terminal kinase (JNK), extracellular signal-regulated kinase (ERK) and IRF7, which regulate cellular functions such as proliferation and apoptosis. Western blot analysis confirmed that ETI41 and ETI60 inhibited IMQ- or ODN2395-induced phosphorylation of MAPKs (p-ERK, p-JNK and p-p38), nuclear translocation of the NF-κB p65 subunit, Iκ-Bα degradation and IRF7 expression in RAW 264.7 cells (Fig. 2a–c and Supplementary Figs. 2 and 3).

TLR1/TLR2 = test: as above; format: cell-based, human; conditions: 2 and 5 μM, differentiated THP-1, FSL-1
Procedure: as §1, §2, §3

TLR5 = biological target: T1, TLR5 (Homo sapiens, UniProt O60602); test: as above; format: cell-based; conditions: 2 and 5 μM, differentiated THP-1, FLA-ST
T1 construct: in differentiated human THP-1 cells; endogenous in cells; host or cells: differentiated THP-1
T1 sequence (O60602 21-858): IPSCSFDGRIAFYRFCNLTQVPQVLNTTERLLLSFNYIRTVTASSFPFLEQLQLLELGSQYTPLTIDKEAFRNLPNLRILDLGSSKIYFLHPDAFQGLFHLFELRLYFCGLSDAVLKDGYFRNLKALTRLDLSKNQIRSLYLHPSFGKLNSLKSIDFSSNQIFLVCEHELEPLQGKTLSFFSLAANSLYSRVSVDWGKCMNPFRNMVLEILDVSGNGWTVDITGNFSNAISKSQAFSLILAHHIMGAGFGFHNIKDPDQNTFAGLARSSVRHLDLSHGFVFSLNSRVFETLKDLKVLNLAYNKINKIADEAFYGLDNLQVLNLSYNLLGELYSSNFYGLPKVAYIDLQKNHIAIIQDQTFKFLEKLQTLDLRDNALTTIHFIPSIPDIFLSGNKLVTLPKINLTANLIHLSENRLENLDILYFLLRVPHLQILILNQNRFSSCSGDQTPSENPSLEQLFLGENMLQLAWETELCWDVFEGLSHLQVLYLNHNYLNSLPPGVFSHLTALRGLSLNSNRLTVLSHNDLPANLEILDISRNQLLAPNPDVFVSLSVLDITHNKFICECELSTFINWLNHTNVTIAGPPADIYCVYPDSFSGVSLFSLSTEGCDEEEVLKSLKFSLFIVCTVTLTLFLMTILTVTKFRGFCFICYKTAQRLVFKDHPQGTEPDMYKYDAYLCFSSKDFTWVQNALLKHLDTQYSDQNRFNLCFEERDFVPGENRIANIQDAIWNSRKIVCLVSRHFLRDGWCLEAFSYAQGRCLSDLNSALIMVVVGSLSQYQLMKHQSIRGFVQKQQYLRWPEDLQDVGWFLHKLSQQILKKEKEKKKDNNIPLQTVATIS
Procedure: as §1, §2, §3

TLR4 = biological target: T2, TLR4 (Homo sapiens, UniProt O00206); test: as above; format: cell-based; conditions: 2 and 5 μM, differentiated THP-1, LPS
T2 construct: in differentiated human THP-1 cells; endogenous in cells; host or cells: differentiated THP-1
T2 sequence (O00206 24-839): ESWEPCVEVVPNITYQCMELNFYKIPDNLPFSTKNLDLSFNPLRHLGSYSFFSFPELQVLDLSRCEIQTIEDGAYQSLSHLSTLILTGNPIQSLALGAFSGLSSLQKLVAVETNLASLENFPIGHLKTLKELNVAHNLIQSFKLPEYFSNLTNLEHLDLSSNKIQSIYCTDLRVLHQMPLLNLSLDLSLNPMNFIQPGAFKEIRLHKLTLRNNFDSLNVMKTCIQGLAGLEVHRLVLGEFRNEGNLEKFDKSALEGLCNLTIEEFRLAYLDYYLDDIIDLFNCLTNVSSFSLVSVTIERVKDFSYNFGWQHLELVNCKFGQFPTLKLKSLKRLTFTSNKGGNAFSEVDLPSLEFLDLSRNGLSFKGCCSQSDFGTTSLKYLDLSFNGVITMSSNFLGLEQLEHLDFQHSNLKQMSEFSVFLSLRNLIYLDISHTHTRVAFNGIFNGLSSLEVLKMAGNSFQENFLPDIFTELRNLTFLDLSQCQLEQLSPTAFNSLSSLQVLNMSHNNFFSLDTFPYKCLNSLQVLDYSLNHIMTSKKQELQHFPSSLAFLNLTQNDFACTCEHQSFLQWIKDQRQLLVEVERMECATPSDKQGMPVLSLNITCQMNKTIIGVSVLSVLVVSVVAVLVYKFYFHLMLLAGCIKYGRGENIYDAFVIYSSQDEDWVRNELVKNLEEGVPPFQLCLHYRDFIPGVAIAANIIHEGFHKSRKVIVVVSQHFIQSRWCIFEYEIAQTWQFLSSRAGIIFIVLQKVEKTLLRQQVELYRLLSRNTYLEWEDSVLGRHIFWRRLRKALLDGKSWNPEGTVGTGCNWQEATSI
T2 sequence (Q9Y6Y9 19-160 partner): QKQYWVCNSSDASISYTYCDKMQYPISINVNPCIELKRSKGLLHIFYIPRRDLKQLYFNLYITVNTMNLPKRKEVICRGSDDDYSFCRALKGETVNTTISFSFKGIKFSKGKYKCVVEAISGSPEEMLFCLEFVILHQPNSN
Procedure: as §1, §2, §3

Daudi cells = test: Water-soluble tetrazolium assay, cell viability in Daudi; format: cell-based
Procedure: Daudi cells were seeded into 96-well plates at a density of 5 × 10^4 cells per well.
One-tailed paired Student’s t-tests were performed using Microsoft Excel (Microsoft). […] The therapeutic index was calculated as […]. Animal experimental results are expressed as mean ± standard deviation and analyzed using SPSS v.20 (IBM SPSS Statistics). Homogeneity of variance was assessed using Levene’s test.
Data are from at least three independent experiments (n = 3) and statistical differences between the induced case and other cases were analyzed and verified using a one-tailed Student’s t-test (*P < 0.05, **P < 0.01, ***P < 0.001).

mTLR3 = biological target: T3, mTLR3 (Mus musculus, UniProt Q99MB1); test: TLR3 inhibition, poly I:C-induced mTNFα in RAW 264.7; format: cell-based
T3 construct: reduction in TNF-α secretion in mouse RAW 264.7 cells; endogenous in cells; host or cells: RAW 264.7
T3 sequence (Q99MB1 26-905): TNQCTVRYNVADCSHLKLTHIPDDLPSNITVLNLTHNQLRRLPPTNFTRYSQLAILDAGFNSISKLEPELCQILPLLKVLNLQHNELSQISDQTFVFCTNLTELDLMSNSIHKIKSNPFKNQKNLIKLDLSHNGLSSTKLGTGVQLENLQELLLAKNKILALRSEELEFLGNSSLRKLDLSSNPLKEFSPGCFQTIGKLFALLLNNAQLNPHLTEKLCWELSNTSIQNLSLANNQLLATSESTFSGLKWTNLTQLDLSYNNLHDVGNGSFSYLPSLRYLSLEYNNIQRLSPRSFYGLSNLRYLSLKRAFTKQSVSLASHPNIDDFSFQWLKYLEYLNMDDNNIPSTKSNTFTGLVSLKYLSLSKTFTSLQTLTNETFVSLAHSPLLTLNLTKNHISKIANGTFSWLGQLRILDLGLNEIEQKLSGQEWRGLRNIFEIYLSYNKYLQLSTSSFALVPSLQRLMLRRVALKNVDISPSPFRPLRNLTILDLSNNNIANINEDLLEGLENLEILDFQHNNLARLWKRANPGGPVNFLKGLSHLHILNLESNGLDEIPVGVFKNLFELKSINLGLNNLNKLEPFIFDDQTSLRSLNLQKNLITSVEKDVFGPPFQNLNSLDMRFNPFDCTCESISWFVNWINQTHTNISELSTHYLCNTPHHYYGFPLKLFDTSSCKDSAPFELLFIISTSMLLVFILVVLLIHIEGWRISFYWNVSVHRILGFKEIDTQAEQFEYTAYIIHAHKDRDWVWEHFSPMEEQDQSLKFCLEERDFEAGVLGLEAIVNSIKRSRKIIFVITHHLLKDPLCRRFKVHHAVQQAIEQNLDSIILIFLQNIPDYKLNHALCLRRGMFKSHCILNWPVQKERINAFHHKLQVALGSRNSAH
Procedure: as §1
One-tailed paired Student’s t-tests were performed using Microsoft Excel (Microsoft). Semi-logarithmic conversions and nonregression curve analyses for calculating 50% lethal concentration (LC50) and 50% inhibitory concentration (IC50) values were conducted using GraphPad Prism 7.0 (GraphPad). The therapeutic index was calculated as […]. Animal experimental results are expressed as mean ± standard deviation and analyzed using SPSS v.20 (IBM SPSS Statistics). Homogeneity of variance was assessed using Levene’s test. […]

hTLR7 = biological target: T4, hTLR7 (Homo sapiens, UniProt Q9NYK1); test: TLR7 inhibition, R848-induced hTNFα in Daudi; format: cell-based
T4 construct: human B lymphoblasts (Daudi cells); endogenous in cells; host or cells: Daudi
T4 sequence (Q9NYK1 27-1049): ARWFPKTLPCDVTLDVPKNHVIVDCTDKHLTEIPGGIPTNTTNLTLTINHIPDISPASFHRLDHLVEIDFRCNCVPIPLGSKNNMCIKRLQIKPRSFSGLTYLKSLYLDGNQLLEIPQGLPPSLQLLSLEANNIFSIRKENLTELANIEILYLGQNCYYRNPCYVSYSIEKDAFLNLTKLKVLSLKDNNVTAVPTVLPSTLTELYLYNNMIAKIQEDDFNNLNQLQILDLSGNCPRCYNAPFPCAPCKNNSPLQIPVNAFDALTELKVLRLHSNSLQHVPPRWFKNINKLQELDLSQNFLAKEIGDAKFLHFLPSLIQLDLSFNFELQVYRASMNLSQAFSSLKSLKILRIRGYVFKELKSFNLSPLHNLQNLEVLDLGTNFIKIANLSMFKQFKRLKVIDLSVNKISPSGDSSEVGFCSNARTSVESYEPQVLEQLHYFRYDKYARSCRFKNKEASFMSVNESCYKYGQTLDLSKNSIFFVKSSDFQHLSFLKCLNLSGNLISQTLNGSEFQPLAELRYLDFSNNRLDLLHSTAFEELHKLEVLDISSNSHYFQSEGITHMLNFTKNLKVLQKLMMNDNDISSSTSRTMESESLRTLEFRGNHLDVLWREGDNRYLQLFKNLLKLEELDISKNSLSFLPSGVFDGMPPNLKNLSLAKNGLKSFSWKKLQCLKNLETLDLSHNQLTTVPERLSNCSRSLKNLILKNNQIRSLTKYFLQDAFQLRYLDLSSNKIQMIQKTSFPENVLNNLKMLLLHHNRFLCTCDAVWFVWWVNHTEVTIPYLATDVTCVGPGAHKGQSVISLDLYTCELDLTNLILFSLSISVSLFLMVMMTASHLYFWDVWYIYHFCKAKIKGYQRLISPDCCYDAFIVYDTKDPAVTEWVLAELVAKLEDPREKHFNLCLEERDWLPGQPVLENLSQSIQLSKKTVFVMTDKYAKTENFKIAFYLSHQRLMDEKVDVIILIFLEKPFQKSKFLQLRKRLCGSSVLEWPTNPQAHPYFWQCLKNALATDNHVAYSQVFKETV
Procedure: as §1
One-tailed paired Student’s t-tests were performed using Microsoft Excel (Microsoft). Semi-logarithmic conversions and nonregression curve analyses for calculating 50% lethal concentration (LC50) and 50% inhibitory concentration (IC50) values were conducted using GraphPad Prism 7.0 (GraphPad). The therapeutic index was calculated as […]. Animal experimental results are expressed as mean ± standard deviation and analyzed using SPSS v.20 (IBM SPSS Statistics). Homogeneity of variance was assessed using Levene’s test.
[…] Data are from at least three independent experiments (n = 3) and statistical differences between the induced case and other cases were analyzed and verified using a one-tailed Student’s t-test (*P < 0.05, **P < 0.01, ***P < 0.001).

## Cc1cc2c(N)c3c(nc2n1CCCN(C)C)CCCCCC3 [ETI41]
TLR2/TLR6
  Inhibition of TLR2/TLR6 (TNF-α secretion): neither compound inhibited
TLR1/TLR2
  Inhibition of TLR1/TLR2 (TNF-α secretion): neither compound inhibited
TLR5
  Inhibition of TLR5 (TNF-α secretion): neither compound inhibited
TLR4
  Inhibition of TLR4 (TNF-α secretion): neither compound inhibited
Daudi cells
  Cell viability (LD50), cytotoxicity: >200,000 nM
mTLR3
  IC50: 993 nM
hTLR7
  IC50: 947 nM

## COc1ccc2c3c(N)c4c(nc3n(CCCN(C)C)c2c1)CCCC4 [ETI60]
TLR2/TLR6
  Inhibition of TLR2/TLR6 (TNF-α secretion): neither compound inhibited
TLR1/TLR2
  Inhibition of TLR1/TLR2 (TNF-α secretion): neither compound inhibited
TLR5
  Inhibition of TLR5 (TNF-α secretion): neither compound inhibited
TLR4
  Inhibition of TLR4 (TNF-α secretion): neither compound inhibited
Daudi cells
  Cell viability (LD50), cytotoxicity: 38,410 nM
mTLR3
  IC50: 372 nM
hTLR7
  IC50: 668 nM
